# Measurements from US20160067247A1, “NOVEL USE” (GlaxoSmithKline Intellectual Property (No.2) Limited, priority 2012, published 2016).
# Read-outs that look alike come from different tables or passages of the source.
# System: primary human lung fibroblasts differentiated into myofibroblasts
# Experiment: Pro-collagen accumulation (hydroxyproline by HPLC) in supernatants of TGFβ differentiated myofibroblasts
# Type: cell-based
# Details: for inhibition at 0.003 µM / inhibition at 0.03 µM: Homo sapiens, Fibroblast
# Method: Cultured non-IPF cell lines (as described in section 3.1.2) were used to study pro-collagen accumulation in cell culture supernatants, following TGF6 induced myofibroblast differentiation.
# Cells were seeded at 100,000 cells per well in 12-well plates (NUNC #150628) in 1 mL complete DMEM and incubated until they reached 100% confluence (4-5 days). Medium was removed from the confluent cells and replaced with 1 mL pre-incubation medium (DMEM containing 4 mM glutamine, 50 μg/mL ascorbic acid, 0.2 mM proline and 0.4% FBS) and incubated for a further 24 hours. Fresh pre-incubation medium was added to 3 wells and immediately collected for analysis in order to determine background level (T0) of hydroxyproline present in the culture medium at the start of the incubation period. […]
# Following 24 hours serum starvation, fibroblasts were stimulated with TGFβ1 (1 ng/mL, 24 hours) (R&D #101-B1) to induce myofibroblast differentiation. Subsequently TGFβ1 was either removed or replenished (by complete serum free media change±TGFβ, 1 ng/ml) and 2,4-difluoro-N-{2-(methyloxy)-5-[4-(4-pyridazinyl)-6-quinolinyl]-3 pyridinyl}benzenesulfonamide (final concentration 3 nM or 30 nM, in 0.1% DMSO) added. Dilutions of 2,4-difluoro-N-{2-(methyloxy)-5-[4-(4-pyridazinyl)-6-quinolinyl]-3 pyridinyl}benzenesulfonamide were prepared from a stock of 0.03M by serial 10-fold dilution in 0.1% DMSO and a further 1000-fold dilution. Differentiated myofibroblast cultures were incubated for further 24 and 48 hours at 37° C., 100% humidity, 10% CO2. See FIG. 1 and FIG. 2 for schematic of the experimental regimen.
# At the end of each incubation time point cell supernatant was collected and frozen at −80° C. The cell layer was detached by incubating with 250 μL of 0.25% trypsin-EDTA for 5 minutes and a 1 mL suspension was made in DMEM. Cell counts were performed on the cell suspension using Sceptre […] sensor.
# The cell supernatants were allowed to thaw at room temperature and proteins were precipitated overnight in 67% (v/v) ethanol at 4° C.
# Precipitated proteins were recovered by vacuum filtration onto Durapore polyvinylidene difluoride (PVDF) membrane filters (pore size 0.45 μm) (type HV, Millipore Ltd., UK; # HVLP02500) and the adhering protein was washed twice with 1.5 mL ethanol (67% v/v). Filters with adherent protein were transferred to Pyrex hydrolysis tubes containing 2 mL 6M HCl. Ethanol-insoluble fractions were then hydrolysed at 110° C. for 16 h and the samples were decolourised by mixing with approx. 70 mg of charcoal and filtered onto Durapore membrane filters (pore size 0.65 μm) (type DA, Millipore Ltd., UK; DVPP02500). Aliquots (100 μl) of decolourised hydrolysate were transferred to 1.5 mL centrifuge tubes and evaporated to dryness using speed vac concentrator (Savant SPD 131DDA, Thermo Electron Corporation, Cambridge, UK).
# Hydroxyproline accumulation in cell culture supernatants is used as a measure of pro-collagen production. Hydroxyproline represents approximately 12% of the primary sequence of pro-collagen and is essential for the formation of the collagen triple helix. Hydroxproline is not present in significant levels in any other proteins. Levels of hydroxyproline in cell culture hydrolysates was quantified by reverse-phase high performance liquid chromatography (HPLC) following derivitisation with 7-chloro-4-nitrobenzo-oxa-1; 3-diazole (NBD-CI) (Sigma; #17239-0050).
# Hydroxyproline Standard: Standard samples of Trans-4-hydroxy-L-proline (PHPRO) Sigma; #H5534) are stored frozen at −20° C. in 10 μL (250 μM) aliquots. A 10 μL aliquot was diluted in 990 μL Milli-Q water (Milli-Q Plus; Millipore Ltd., UK) and used as standard. The final amount of Hydroxyproline (Hyp) standard loaded onto the column was 50 pmoles.
# Samples: Milli-Q water (100 μL) was added to the dried aliquot of hydrolysate and left to rehydrate at 4° C. overnight. […]
smiles,measurement,setting,value
"COc1ncc(-c2ccc3nccc(-c4ccnnc4)c3c2)cc1NS(=O)(=O)c1ccc(F)cc1F [2,4-difluoro-N-{2-(methyloxy)-5-[4-(4-pyridazinyl)-6-quinolinyl]-3-pyridinyl}benzenesulfonamide]",inhibition at 0.003 µM,"24 h, line 0110 (A), TGFβ removed, 3 nM, 24 hour, read-out: mean percent inhibition of TGFβ induced pro-collagen production",31.6%
same,inhibition at 0.03 µM,"24 h, line 0110 (A), TGFβ removed, 30 nM, 24 hour, read-out: mean percent inhibition of TGFβ induced pro-collagen production",60.8%
same,inhibition at 0.003 µM,"24 h, line 0610 (B), TGFβ removed, 3 nM, 24 hour, read-out: mean percent inhibition of TGFβ induced pro-collagen production",26.2%
same,inhibition at 0.03 µM,"24 h, line 0610 (B), TGFβ removed, 30 nM, 24 hour, read-out: mean percent inhibition of TGFβ induced pro-collagen production",56.8%
same,inhibition at 0.003 µM,"24 h, line 0610 (B), TGFβ replenished, 3 nM, 24 hour, read-out: mean percent inhibition of TGFβ induced pro-collagen production following replenishment of TGFβ",29.1%
same,inhibition at 0.03 µM,"24 h, line 0610 (B), TGFβ replenished, 30 nM, 24 hour, read-out: mean percent inhibition of TGFβ induced pro-collagen production following replenishment of TGFβ",45.4%
same,inhibition at 0.003 µM,"48 h, line 0110 (A), TGFβ removed, 3 nM, 48 hour, read-out: mean percent inhibition of TGFβ induced pro-collagen production",48.1%
same,inhibition at 0.03 µM,"48 h, line 0110 (A), TGFβ removed, 30 nM, 48 hour, read-out: mean percent inhibition of TGFβ induced pro-collagen production",64%
same,inhibition at 0.003 µM,"48 h, line 0110 (A), TGFβ replenished, 3 nM, 48 hour, read-out: mean percent inhibition of TGFβ induced pro-collagen production following replenishment of TGFβ",6.3%
same,inhibition at 0.03 µM,"48 h, line 0110 (A), TGFβ replenished, 30 nM, 48 hour, read-out: mean percent inhibition of TGFβ induced pro-collagen production following replenishment of TGFβ",35.2%
same,inhibition at 0.003 µM,"48 h, line 0610 (B), TGFβ removed, 3 nM, 48 hour, read-out: mean percent inhibition of TGFβ induced pro-collagen production",35.6%
same,inhibition at 0.03 µM,"48 h, line 0610 (B), TGFβ removed, 30 nM, 48 hour, read-out: mean percent inhibition of TGFβ induced pro-collagen production",59.6%
same,inhibition at 0.03 µM,"48 h, line 0610 (B), TGFβ replenished, 30 nM, 48 hour, read-out: mean percent inhibition of TGFβ induced pro-collagen production following replenishment of TGFβ",37.7%
same,mean percent inhibition of TGFβ induced pro-collagen production following replenishment of TGFβ,"line 0110 (A), TGFβ replenished, 3 nM, 24 hour",No inhibition
same,mean percent inhibition of TGFβ induced pro-collagen production following replenishment of TGFβ,"line 0110 (A), TGFβ replenished, 30 nM, 24 hour",No inhibition
same,mean percent inhibition of TGFβ induced pro-collagen production following replenishment of TGFβ,"line 0610 (B), TGFβ replenished, 3 nM, 48 hour",No inhibition
